Results reported in BindingDB's records for doi:10.1021/jm701311r (Georgia Institute of Technology, 2008).

Legend:
Test in all cases: AE Enzyme Inhibition Assay
[1] = target: T1, Clan CD, family C13, asparaginyl endopeptidase-like cysteine peptidase (Trichomonas vaginalis (strain ATCC PRA-98 / G3), UniProt A2DYT2)
T1 sequence (A2DYT2 whole entry): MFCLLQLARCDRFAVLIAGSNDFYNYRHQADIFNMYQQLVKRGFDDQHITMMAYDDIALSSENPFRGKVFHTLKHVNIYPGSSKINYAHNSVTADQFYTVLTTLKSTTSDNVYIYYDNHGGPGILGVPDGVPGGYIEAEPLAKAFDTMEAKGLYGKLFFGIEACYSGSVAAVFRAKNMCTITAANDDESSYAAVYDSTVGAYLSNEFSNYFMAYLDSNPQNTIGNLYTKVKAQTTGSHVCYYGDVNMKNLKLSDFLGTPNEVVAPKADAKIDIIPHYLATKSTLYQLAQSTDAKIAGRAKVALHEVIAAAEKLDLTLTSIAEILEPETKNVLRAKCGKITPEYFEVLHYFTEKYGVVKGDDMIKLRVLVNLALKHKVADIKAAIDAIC
Protocol: (§1) AE activity in the induction medium was measured with the substrate Cbz-Ala-Ala-Asn-AMC. In a black 96-well microtiter plate, aza-peptidyl inhibitors were added to the reaction buffer containing the activated enzyme, and allowed to incubate at room temperature for 20 min. Then, substrate Cbz- Ala-Ala-Asn-AMC was added and the reaction allowed proceeding for 20 min. Plotting the relative fluorescence units (RFU)/min against the inhibitor concentration (uM) permitted calculation of the IC50 value.

Legumain [2] = target: T2, Legumain (Ixodes ricinus, UniProt Q6PRC7); conditions: 25 °C
T2 sequence (Q6PRC7 whole entry): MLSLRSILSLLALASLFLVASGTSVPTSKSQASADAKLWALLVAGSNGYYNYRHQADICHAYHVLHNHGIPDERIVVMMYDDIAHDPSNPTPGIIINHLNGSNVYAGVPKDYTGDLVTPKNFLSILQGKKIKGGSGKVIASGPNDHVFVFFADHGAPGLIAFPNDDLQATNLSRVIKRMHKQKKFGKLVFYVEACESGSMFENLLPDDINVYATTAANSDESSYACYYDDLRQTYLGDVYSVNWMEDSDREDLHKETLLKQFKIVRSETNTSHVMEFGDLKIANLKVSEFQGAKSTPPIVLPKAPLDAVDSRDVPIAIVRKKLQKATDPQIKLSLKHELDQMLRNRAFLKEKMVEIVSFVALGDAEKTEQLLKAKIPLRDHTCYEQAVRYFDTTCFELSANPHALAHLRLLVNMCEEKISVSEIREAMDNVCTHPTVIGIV
Protocol: as §1

Legumain [3] = target: T3, Legumain (Schistosoma mansoni, UniProt Q9NFY9)
T3 sequence (Q9NFY9 whole entry): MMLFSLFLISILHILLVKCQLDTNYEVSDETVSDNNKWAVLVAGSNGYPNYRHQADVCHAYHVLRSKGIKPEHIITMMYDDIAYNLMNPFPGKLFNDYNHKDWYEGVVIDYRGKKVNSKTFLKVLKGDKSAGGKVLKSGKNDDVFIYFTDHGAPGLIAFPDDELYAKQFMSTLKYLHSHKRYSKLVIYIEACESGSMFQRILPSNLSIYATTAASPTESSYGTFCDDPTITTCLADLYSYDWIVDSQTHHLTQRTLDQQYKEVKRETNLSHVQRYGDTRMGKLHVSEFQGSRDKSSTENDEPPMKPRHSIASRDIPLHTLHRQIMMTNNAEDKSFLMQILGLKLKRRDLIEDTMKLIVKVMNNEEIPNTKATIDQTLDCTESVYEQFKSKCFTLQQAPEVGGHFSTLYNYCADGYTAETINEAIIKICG
Protocol: as §1

C[C@H](NC(=O)OCc1ccccc1)C(=O)N[C@@H](C)C(=O)NN(CC(N)=O)C(=O)C=CC(=O)OCc1ccccc1 [benzyl (2E)-3-{N'-[(2S)-2-[(2S)-2-{[(benzyloxy)carbonyl]amino}propanamido]propanoyl]-N-(carbamoylmethyl)hydrazinecarbonyl}prop-2-enoate]
IC50 ([1]; pH 6.8, 22 °C): 0.005 µM
IC50 (Legumain [2]): < 0.001 µM

CC=CC=CC(=O)N(CC(N)=O)NC(=O)[C@H](C)NC(=O)[C@H](C)NC(=O)OCc1ccccc1 [benzyl N-[(1S)-1-{[(1S)-1-[N'-(carbamoylmethyl)-N'-(2E,4E)-hexa-2,4-dienoylhydrazinecarbonyl]ethyl]carbamoyl}ethyl]carbamate]
IC50 ([1]; 25 °C): 8 µM

CCCCN(CCCC)C(=O)C=CC(=O)N(CC(N)=O)NC(=O)[C@H](C)NC(=O)[C@H](C)NC(=O)OCc1ccccc1 [benzyl N-[(1S)-1-{[(1S)-1-[N'-(carbamoylmethyl)-N'-[(2E)-3-(dibutylcarbamoyl)prop-2-enoyl]hydrazinecarbonyl]ethyl]carbamoyl}ethyl]carbamate]
IC50 ([1]; pH 6.8, 22 °C): 1 µM
IC50 (Legumain [3]; pH 6.8, 22 °C): 0.55 µM
IC50 (Legumain [2]): 0.1 µM

CCN(CC)C(=O)C=CC(=O)N(CC(N)=O)NC(=O)[C@H](C)NC(=O)[C@H](C)NC(=O)OCc1ccccc1 [benzyl N-[(1S)-1-{[(1S)-1-[N'-(carbamoylmethyl)-N'-[(2E)-3-(diethylcarbamoyl)prop-2-enoyl]hydrazinecarbonyl]ethyl]carbamoyl}ethyl]carbamate]
IC50 ([1]; pH 6.8, 22 °C): 2 µM
IC50 (Legumain [2]): 2.7 µM

C[C@H](NC(=O)OCc1ccccc1)C(=O)N[C@@H](C)C(=O)NN(CC(N)=O)C(=O)C=Cc1ccco1 [benzyl N-[(1S)-1-{[(1S)-1-[N'-(carbamoylmethyl)-N'-[(2E)-3-(furan-2-yl)prop-2-enoyl]hydrazinecarbonyl]ethyl]carbamoyl}ethyl]carbamate]
IC50 (Legumain [3]; pH 6.8, 22 °C): > 2 µM
IC50 (Legumain [2]): 7.5 µM

C[C@H](NC(=O)OCc1ccccc1)C(=O)N[C@@H](C)C(=O)NN(CC(N)=O)C(=O)C=CC(=O)N1CCc2ccccc21 [benzyl N-[(1S)-1-{[(1S)-1-[N'-(carbamoylmethyl)-N'-[(2E)-4-(2,3-dihydro-1H-indol-1-yl)-4-oxobut-2-enoyl]hydrazinecarbonyl]ethyl]carbamoyl}ethyl]carbamate]
IC50 ([1]; 25 °C): 0.05 µM
IC50 (Legumain [3]; 25 °C): 0.07 µM
IC50 (Legumain [2]): 0.018 µM

C[C@H](NC(=O)OCc1ccccc1)C(=O)N[C@@H](C)C(=O)NN(CC(N)=O)C(=O)C=CC(=O)N1Cc2ccccc2C1 [benzyl N-[(1S)-1-{[(1S)-1-[N'-(carbamoylmethyl)-N'-[(2E)-4-(2,3-dihydro-1H-isoindol-2-yl)-4-oxobut-2-enoyl]hydrazinecarbonyl]ethyl]carbamoyl}ethyl]carbamate]
IC50 ([1]; 25 °C): 0.02 µM
IC50 (Legumain [3]; 25 °C): 0.3 µM
IC50 (Legumain [2]): 0.0045 µM

C[C@H](NC(=O)OCc1ccccc1)C(=O)N[C@@H](C)C(=O)NN(CC(N)=O)C(=O)C=CC(=O)N(Cc1ccco1)Cc1ccco1 [benzyl N-[(1S)-1-{[(1S)-1-{N'-[(2E)-3-[bis(furan-2-ylmethyl)carbamoyl]prop-2-enoyl]-N'-(carbamoylmethyl)hydrazinecarbonyl}ethyl]carbamoyl}ethyl]carbamate]
IC50 ([1]; 25 °C): 5 µM
IC50 (Legumain [3]; 25 °C): 0.9 µM
IC50 (Legumain [2]): 15 µM

C[C@H](NC(=O)OCc1ccccc1)C(=O)N[C@@H](C)C(=O)NN(CC(N)=O)C(=O)C=CC(=O)NCCc1ccccc1 [benzyl N-[(1S)-1-{[(2S)-1-[(2E)-3-[N-(carbamoylmethyl)hydrazido]-N-(2-phenylethyl)prop-2-enamide]-1-oxopropan-2-yl]carbamoyl}ethyl]carbamate]
IC50 ([1]; pH 6.8, 22 °C): 0.01 µM
IC50 (Legumain [3]; pH 6.8, 22 °C): 0.6 µM
IC50 (Legumain [2]): 0.35 µM

C[C@H](NC(=O)OCc1ccccc1)C(=O)N[C@@H](C)C(=O)NN(CC(N)=O)C(=O)C=CC(=O)NCc1ccc(F)cc1 [benzyl N-[(1S)-1-{[(2S)-1-[(2E)-3-[N-(carbamoylmethyl)hydrazido]-N-[(4-fluorophenyl)methyl]prop-2-enamide]-1-oxopropan-2-yl]carbamoyl}ethyl]carbamate]
IC50 ([1]; pH 6.8, 22 °C): 0.075 µM
IC50 (Legumain [3]; pH 6.8, 22 °C): 0.8 µM
IC50 (Legumain [2]): 0.25 µM

C[C@H](NC(=O)OCc1ccccc1)C(=O)N[C@@H](C)C(=O)NN(CC(N)=O)C(=O)C=CC(=O)N(C)CCc1ccccc1 [benzyl N-[(1S)-1-{[(2S)-1-[(2E)-3-[N-(carbamoylmethyl)hydrazido]-N-methyl-N-(2-phenylethyl)prop-2-enamide]-1-oxopropan-2-yl]carbamoyl}ethyl]carbamate]
IC50 ([1]; 25 °C): 0.05 µM
IC50 (Legumain [3]; pH 6.8, 22 °C): 0.6 µM

C[C@H](NC(=O)OCc1ccccc1)C(=O)N[C@@H](C)C(=O)NN(CC(N)=O)C(=O)C=CC(=O)N(C)Cc1cccc2ccccc12 [benzyl N-[(1S)-1-{[(2S)-1-[(2E)-3-[N-(carbamoylmethyl)hydrazido]-N-methyl-N-(naphthalen-1-ylmethyl)prop-2-enamide]-1-oxopropan-2-yl]carbamoyl}ethyl]carbamate]
IC50 ([1]; 25 °C): < 0.001 µM
IC50 (Legumain [3]; pH 6.8, 22 °C): 0.035 µM
IC50 (Legumain [2]): 0.0055 µM

C[C@H](NC(=O)OCc1ccccc1)C(=O)N[C@@H](C)C(=O)NN(CC(N)=O)C(=O)C=CC(=O)N(C)c1ccccc1 [benzyl N-[(1S)-1-{[(2S)-1-[(2E)-3-[N-(carbamoylmethyl)hydrazido]-N-methyl-N-phenylprop-2-enamide]-1-oxopropan-2-yl]carbamoyl}ethyl]carbamate]
IC50 ([1]; pH 6.8, 22 °C): 0.005 µM
IC50 (Legumain [3]; pH 6.8, 22 °C): 0.06 µM
IC50 (Legumain [2]): 0.0018 µM

C[C@H](NC(=O)OCc1ccccc1)C(=O)N[C@@H](C)C(=O)NN(CC(N)=O)C(=O)C=CC(=O)N(C)C(Cc1ccccc1)C(=O)N(C)CCc1ccccc1 (stereo partly drawn) [benzyl N-[(1S)-1-{[(2S)-1-[(2E)-3-[N-(carbamoylmethyl)hydrazido]-N-methyl-N-{1-[methyl(2-phenylethyl)carbamoyl]-2-phenylethyl}prop-2-enamide]-1-oxopropan-2-yl]carbamoyl}ethyl]carbamate]
IC50 ([1]; 25 °C): 0.08 µM
IC50 (Legumain [3]; 25 °C): 0.75 µM
IC50 (Legumain [2]): 0.3 µM

C[C@H](NC(=O)OCc1ccccc1)C(=O)N[C@@H](C)C(=O)NN(CC(N)=O)C(=O)C=CC(=O)Nc1ccccc1 [benzyl N-[(1S)-1-{[(2S)-1-[(2E)-3-[N-(carbamoylmethyl)hydrazido]-N-phenylprop-2-enamide]-1-oxopropan-2-yl]carbamoyl}ethyl]carbamate]
IC50 ([1]; pH 6.8, 22 °C): 0.02 µM
IC50 (Legumain [3]; pH 6.8, 22 °C): 0.7 µM
IC50 (Legumain [2]): 0.01 µM

C[C@H](NC(=O)OCc1ccccc1)C(=O)N[C@@H](C)C(=O)NN(CC(N)=O)C(=O)C=CC(=O)N1CCCCC1 [benzyl N-[(1S)-1-{[(2S)-1-[(2E)-N-(carbamoylmethyl)-4-oxo-4-(piperidin-1-yl)but-2-enehydrazido]-1-oxopropan-2-yl]carbamoyl}ethyl]carbamate]
IC50 ([1]; pH 6.8, 22 °C): 0.5 µM
IC50 (Legumain [3]; pH 6.8, 22 °C): 1 µM

C[C@H](NC(=O)OCc1ccccc1)C(=O)N[C@@H](C)C(=O)NN(CC(N)=O)C(=O)C=CC(=O)c1ccccc1 [benzyl N-[(1S)-1-{[(2S)-1-[(2E)-N-(carbamoylmethyl)-4-oxo-4-phenylbut-2-enehydrazido]-1-oxopropan-2-yl]carbamoyl}ethyl]carbamate]
IC50 ([1]; 25 °C): 10 µM
IC50 (Legumain [2]): > 20 µM

C[C@H](NC(=O)OCc1ccccc1)C(=O)N[C@@H](C)C(=O)NN(CC(N)=O)C(=O)C=CC(=O)N(C)Cc1ccccc1 [benzyl N-[(1S)-1-{[(2S)-1-[(2E)-N-benzyl-3-[N-(carbamoylmethyl)hydrazido]-N-methylprop-2-enamide]-1-oxopropan-2-yl]carbamoyl}ethyl]carbamate]
IC50 ([1]; 25 °C): 0.00055 µM
IC50 (Legumain [2]): < 0.001 µM

CCOC(=O)C=CC(=O)N(CC(N)=O)NC(=O)[C@H](C)NC(=O)[C@H](C)NC(=O)OCc1ccccc1 [ethyl (2E)-4-[(2S)-2-[(2S)-2-{[(benzyloxy)carbonyl]amino}propanamido]-N'-(carbamoylmethyl)propanehydrazido]-4-oxobut-2-enoate]
IC50 ([1]; pH 6.8, 22 °C): 0.0045 µM
IC50 (Legumain [2]): 0.0045 µM
